Experimental data published in patent EP4722212A1, “NOVEL COMPOUND FOR INHIBITING PROTEIN KINASES AND PHARMACEUTICAL COMPOSITION COMPRISING SAME” (Magicbullettherapeutics Co., Ltd., priority 2023, dated 2024).
Read-outs that look alike come from different tables or passages of the source.

How the values were obtained:
Assay in all cases: Kinase panel
Type in all cases: biochemical
ACK1 = molecular target: T1, ACK1 (Homo sapiens, UniProt Q07912); conditions: ACK1, 1 µM; read-out: residual enzyme activity
T1 construct: purchased Reaction Biology (RBC)
Summary of the method: (§1)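 Single-point screen at 1 µM in a biochemical kinase panel; readout is % residual enzyme activity; hit cut-off ≤40% remaining (≥60% inhibited).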

BLK = BLK (Homo sapiens, UniProt P51451); conditions: read-out: residual enzyme activity
Summary of the method: as §1

BMPR2 = BMPR2 (Homo sapiens, UniProt Q13873); conditions: BMPR2, 1 µM; read-out: residual enzyme activity
Summary of the method: as §1

BRSK2 = BRSK2 (Homo sapiens, UniProt Q8IWQ3); conditions: BRSK2, 1 µM; read-out: residual enzyme activity
Summary of the method: as §1

C-KIT = C-KIT (Homo sapiens, UniProt P10721); conditions: read-out: residual enzyme activity
Summary of the method: as §1

CDK2/CYCLIN E2 = CDK2/CYCLIN E2 (Homo sapiens, UniProt P24941); conditions: CDK2/cyclin E2, 1 µM; read-out: residual enzyme activity
Summary of the method: as §1

CDK5/P35 = CDK5/P35 (Homo sapiens, UniProt Q00535); conditions: read-out: residual enzyme activity
Summary of the method: as §1

CLK4 = CLK4 (Homo sapiens, UniProt Q9HAZ1); conditions: CLK4, 1 µM; read-out: residual enzyme activity
Summary of the method: as §1

DMPK2 = DMPK2 (Homo sapiens, UniProt Q6DT37); conditions: DMPK2, 1 µM; read-out: residual enzyme activity
Summary of the method: as §1

EPHA7 = EPHA7 (Homo sapiens, UniProt Q15375); conditions: EPHA7, 1 µM; read-out: residual enzyme activity
Summary of the method: as §1

ERBB2/HER2 = ERBB2/HER2 (Homo sapiens, UniProt P04626); conditions: ERBB2/HER2, 1 µM; read-out: residual enzyme activity
Summary of the method: as §1

ERK1 = ERK1 (Homo sapiens, UniProt P27361); conditions: ERK1, 1 µM; read-out: residual enzyme activity
Summary of the method: as §1

ERN2/IRE2 = ERN2/IRE2 (Homo sapiens, UniProt Q76MJ5); conditions: ERN2/IRE2, 1 µM; read-out: residual enzyme activity
Summary of the method: as §1

FLT1/VEGFR1 = FLT1/VEGFR1 (Homo sapiens, UniProt P17948); conditions: FLT1/VEGFR1, 1 µM; read-out: residual enzyme activity
Summary of the method: as §1

JNK3 = JNK3 (Homo sapiens, UniProt P53779); conditions: JNK3, 1 µM; read-out: residual enzyme activity
Summary of the method: as §1

MKK6 = MKK6 (Homo sapiens, UniProt P52564); conditions: MKK6, 1 µM; read-out: residual enzyme activity
Summary of the method: as §1

MLCK/MYLK = MLCK/MYLK (Homo sapiens, UniProt Q15746); conditions: read-out: residual enzyme activity
Summary of the method: as §1

MSK2/RPS6KA4 = MSK2/RPS6KA4 (Homo sapiens, UniProt O75676); conditions: MSK2/RPS6KA4, 1 µM; read-out: residual enzyme activity
Summary of the method: as §1

MYLK3 = MYLK3 (Homo sapiens, UniProt Q32MK0); conditions: MYLK3, 1 µM; read-out: residual enzyme activity
Summary of the method: as §1

MYO3B = MYO3B (Homo sapiens, UniProt Q8WXR4); conditions: read-out: residual enzyme activity
Summary of the method: as §1

OSR1/OXSR1 = OSR1/OXSR1 (Homo sapiens, UniProt O95747); conditions: OSR1/OXSR1, 1 µM; read-out: residual enzyme activity
Summary of the method: as §1

PAK1 = PAK1 (Homo sapiens, UniProt Q13153); conditions: PAK1, 1 µM; read-out: residual enzyme activity
Summary of the method: as §1

PKA = PKA (Homo sapiens, UniProt P17612); conditions: read-out: residual enzyme activity
Summary of the method: as §1

PKACG = PKACG (Homo sapiens, UniProt P22612); conditions: read-out: residual enzyme activity
Summary of the method: as §1

PKCZETA = PKCZETA (Homo sapiens, UniProt Q05513); conditions: read-out: residual enzyme activity
Summary of the method: as §1

PKG1B = PKG1B (Homo sapiens, UniProt Q13976); conditions: read-out: residual enzyme activity
Summary of the method: as §1

RSK1 = RSK1 (Homo sapiens, UniProt Q15418); conditions: RSK1, 1 µM; read-out: residual enzyme activity
Summary of the method: as §1

SGK3/SGKL = SGK3/SGKL (Homo sapiens, UniProt Q96BR1); conditions: read-out: residual enzyme activity
Summary of the method: as §1

STK22D/TSSK1 = STK22D/TSSK1 (Homo sapiens, UniProt Q9BXA7); conditions: STK22D/TSSK1, 1 µM; read-out: residual enzyme activity
Summary of the method: as §1

STK38/NDR1 = STK38/NDR1 (Homo sapiens, UniProt Q15208); conditions: STK38/NDR1, 1 µM; read-out: residual enzyme activity
Summary of the method: as §1

STK39/STLK3 = STK39/STLK3 (Homo sapiens, UniProt Q9UEW8); conditions: STK39/STLK3, 1 µM; read-out: residual enzyme activity
Summary of the method: as §1

TAOK1 = TAOK1 (Homo sapiens, UniProt Q7L7X3); conditions: TAOK1, 1 µM; read-out: residual enzyme activity
Summary of the method: as §1

WEE1 = WEE1 (Homo sapiens, UniProt P30291); conditions: WEE1, 1 µM; read-out: residual enzyme activity
Summary of the method: as §1

Chain of ERN2/IRE2 (Q76MJ5 35-926): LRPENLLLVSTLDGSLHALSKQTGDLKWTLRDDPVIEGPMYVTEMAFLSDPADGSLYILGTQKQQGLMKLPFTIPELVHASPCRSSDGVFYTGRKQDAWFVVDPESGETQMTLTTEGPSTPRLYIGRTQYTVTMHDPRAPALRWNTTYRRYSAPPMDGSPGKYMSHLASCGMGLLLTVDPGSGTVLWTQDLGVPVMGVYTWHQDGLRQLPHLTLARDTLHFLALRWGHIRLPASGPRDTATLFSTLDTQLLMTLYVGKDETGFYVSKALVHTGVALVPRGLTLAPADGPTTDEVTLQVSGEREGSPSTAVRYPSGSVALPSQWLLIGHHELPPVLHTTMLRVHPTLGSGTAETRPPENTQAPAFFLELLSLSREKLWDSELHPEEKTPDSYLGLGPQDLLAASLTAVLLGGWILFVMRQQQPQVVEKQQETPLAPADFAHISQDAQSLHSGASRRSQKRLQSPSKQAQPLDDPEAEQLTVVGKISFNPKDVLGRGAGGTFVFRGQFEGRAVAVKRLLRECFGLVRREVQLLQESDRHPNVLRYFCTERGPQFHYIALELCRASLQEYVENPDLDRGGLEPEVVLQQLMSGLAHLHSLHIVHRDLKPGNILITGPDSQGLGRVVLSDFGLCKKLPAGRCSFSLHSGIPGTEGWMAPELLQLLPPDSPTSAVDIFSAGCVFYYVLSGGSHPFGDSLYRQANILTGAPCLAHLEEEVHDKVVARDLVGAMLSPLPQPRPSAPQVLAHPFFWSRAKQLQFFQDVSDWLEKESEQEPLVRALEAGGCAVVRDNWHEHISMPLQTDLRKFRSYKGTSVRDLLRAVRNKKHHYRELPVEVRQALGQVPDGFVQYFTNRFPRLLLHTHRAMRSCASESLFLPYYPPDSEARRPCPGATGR
Chain of OSR1/OXSR1 (O95747 whole entry): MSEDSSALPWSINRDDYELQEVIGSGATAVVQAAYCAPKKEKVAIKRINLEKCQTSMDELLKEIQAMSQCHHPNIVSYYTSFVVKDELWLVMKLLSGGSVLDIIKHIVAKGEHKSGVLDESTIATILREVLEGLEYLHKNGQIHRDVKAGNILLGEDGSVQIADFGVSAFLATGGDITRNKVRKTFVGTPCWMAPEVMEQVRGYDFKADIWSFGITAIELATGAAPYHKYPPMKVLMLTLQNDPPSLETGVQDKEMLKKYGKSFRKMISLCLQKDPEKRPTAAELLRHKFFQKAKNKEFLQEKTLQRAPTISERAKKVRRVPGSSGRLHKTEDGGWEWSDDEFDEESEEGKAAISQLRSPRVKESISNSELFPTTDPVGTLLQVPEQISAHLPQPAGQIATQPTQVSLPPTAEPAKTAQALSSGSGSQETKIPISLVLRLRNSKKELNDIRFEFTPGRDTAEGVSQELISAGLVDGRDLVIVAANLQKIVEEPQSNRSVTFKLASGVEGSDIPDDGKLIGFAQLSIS
Chain of BRSK2 (Q8IWQ3 whole entry, species assumed): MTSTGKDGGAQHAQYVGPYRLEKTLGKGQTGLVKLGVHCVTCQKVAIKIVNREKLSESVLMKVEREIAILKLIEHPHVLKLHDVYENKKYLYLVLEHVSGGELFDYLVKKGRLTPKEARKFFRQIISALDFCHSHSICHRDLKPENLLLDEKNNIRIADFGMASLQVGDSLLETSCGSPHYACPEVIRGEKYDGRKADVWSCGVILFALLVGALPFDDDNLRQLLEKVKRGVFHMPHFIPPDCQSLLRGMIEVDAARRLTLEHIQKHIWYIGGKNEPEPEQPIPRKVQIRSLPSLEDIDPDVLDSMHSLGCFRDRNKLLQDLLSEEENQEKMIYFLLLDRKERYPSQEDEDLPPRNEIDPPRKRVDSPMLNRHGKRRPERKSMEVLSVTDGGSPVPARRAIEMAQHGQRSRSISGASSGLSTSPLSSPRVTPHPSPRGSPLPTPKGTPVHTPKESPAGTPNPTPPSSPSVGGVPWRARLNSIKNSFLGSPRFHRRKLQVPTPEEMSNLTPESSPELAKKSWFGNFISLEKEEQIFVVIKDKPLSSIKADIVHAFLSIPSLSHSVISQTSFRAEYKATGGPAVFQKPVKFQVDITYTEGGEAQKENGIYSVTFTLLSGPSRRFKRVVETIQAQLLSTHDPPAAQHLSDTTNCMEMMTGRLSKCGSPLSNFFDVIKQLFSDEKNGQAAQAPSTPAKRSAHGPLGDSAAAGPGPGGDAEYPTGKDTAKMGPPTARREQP
Chain of TAOK1 (Q7L7X3 whole entry, species assumed): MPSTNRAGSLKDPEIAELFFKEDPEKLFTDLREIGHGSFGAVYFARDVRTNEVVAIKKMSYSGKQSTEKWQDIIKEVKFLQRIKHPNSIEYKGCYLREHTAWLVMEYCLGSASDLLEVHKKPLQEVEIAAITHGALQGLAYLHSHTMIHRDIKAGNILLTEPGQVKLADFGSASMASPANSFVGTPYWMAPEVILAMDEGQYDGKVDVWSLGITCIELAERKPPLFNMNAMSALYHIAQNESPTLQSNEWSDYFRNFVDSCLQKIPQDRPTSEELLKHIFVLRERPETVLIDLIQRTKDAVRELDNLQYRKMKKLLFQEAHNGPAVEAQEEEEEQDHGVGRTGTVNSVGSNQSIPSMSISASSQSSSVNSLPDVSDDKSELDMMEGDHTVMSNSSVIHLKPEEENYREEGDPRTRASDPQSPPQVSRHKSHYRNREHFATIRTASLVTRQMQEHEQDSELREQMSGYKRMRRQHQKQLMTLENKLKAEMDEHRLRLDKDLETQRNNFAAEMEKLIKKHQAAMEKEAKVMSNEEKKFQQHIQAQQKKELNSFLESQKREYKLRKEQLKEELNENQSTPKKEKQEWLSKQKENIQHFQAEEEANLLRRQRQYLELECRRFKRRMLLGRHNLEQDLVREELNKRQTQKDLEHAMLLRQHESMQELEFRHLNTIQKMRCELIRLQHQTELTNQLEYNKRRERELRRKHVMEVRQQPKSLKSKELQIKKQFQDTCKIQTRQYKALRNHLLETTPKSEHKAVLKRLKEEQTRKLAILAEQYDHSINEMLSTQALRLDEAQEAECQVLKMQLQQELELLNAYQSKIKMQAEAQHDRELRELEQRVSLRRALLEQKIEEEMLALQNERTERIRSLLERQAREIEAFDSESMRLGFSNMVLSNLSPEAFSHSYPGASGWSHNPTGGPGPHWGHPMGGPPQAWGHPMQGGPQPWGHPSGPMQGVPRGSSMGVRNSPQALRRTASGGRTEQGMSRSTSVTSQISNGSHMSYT
Chain of RSK1 (Q15418 whole entry, species assumed): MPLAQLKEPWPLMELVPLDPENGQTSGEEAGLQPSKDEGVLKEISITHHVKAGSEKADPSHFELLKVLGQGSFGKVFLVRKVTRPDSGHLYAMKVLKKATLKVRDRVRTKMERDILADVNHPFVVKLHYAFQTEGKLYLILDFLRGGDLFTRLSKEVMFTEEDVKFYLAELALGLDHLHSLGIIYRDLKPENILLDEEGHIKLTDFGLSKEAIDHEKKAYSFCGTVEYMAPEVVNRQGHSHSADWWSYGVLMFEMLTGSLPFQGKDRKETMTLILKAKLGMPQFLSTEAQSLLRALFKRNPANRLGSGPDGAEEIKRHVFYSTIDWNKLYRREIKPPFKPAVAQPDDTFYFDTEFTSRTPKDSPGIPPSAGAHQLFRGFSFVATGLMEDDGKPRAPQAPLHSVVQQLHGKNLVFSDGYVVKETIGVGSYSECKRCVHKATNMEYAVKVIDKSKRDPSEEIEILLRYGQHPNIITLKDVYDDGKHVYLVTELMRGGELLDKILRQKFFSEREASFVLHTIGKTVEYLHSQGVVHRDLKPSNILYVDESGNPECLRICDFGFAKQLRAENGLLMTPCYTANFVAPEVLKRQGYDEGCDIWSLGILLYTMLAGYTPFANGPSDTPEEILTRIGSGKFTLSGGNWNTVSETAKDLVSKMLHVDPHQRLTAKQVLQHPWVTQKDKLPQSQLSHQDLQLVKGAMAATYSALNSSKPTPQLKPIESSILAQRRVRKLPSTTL
Chain of CLK4 (Q9HAZ1 whole entry, species assumed): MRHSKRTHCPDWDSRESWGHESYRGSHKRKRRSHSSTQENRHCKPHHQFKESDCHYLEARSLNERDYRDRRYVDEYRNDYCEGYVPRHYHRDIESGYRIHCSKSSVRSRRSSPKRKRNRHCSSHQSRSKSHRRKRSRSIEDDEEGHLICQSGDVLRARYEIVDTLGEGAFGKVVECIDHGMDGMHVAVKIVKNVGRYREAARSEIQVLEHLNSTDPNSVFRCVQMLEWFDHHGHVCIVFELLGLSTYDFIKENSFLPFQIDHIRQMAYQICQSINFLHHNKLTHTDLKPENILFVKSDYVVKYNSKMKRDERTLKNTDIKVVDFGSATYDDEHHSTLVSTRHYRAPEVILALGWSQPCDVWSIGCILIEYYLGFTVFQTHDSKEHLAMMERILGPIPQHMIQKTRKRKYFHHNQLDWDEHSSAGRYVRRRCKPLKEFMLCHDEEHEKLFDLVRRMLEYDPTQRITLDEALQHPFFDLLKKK
Chain of STK38/NDR1 (Q15208 whole entry): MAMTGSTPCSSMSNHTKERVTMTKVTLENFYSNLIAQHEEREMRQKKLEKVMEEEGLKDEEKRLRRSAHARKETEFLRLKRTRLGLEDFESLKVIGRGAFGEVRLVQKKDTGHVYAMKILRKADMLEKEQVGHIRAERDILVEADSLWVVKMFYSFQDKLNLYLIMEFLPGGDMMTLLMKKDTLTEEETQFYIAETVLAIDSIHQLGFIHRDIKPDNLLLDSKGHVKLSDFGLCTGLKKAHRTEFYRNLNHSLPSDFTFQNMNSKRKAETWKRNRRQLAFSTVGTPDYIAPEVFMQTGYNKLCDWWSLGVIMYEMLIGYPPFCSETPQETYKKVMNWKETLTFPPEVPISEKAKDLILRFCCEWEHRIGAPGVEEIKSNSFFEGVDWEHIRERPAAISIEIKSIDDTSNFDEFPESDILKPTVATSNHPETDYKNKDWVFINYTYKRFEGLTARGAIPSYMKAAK

SMILES | remaining activity at 1 µM (ACK1) [%] | remaining activity at 1 µM (BLK) [%] | remaining activity at 1 µM (BMPR2) [%] | remaining activity at 1 µM (BRSK2) [%] | remaining activity at 1 µM (CDK2/CYCLIN E2) [%] | remaining activity at 1 µM (CLK4) [%] | remaining activity at 1 µM (DMPK2) [%] | remaining activity at 1 µM (EPHA7) [%] | remaining activity at 1 µM (ERBB2/HER2) [%] | remaining activity at 1 µM (ERK1) [%] | remaining activity at 1 µM (ERN2/IRE2) [%] | remaining activity at 1 µM (FLT1/VEGFR1) [%] | remaining activity at 1 µM (JNK3) [%] | remaining activity at 1 µM (MKK6) [%] | remaining activity at 1 µM (MLCK/MYLK) [%] | remaining activity at 1 µM (MSK2/RPS6KA4) [%] | remaining activity at 1 µM (MYLK3) [%] | remaining activity at 1 µM (OSR1/OXSR1) [%] | remaining activity at 1 µM (PAK1) [%] | remaining activity at 1 µM (PKA) [%] | further results
Cc1cn(-c2cc(C(=O)Nc3ccc(C)c(N4Cc5cnc(NC6CC6)nc5C5(CC5)C4=O)c3)cc(C(F)(F)F)c2)cn1 [Compound 8, N-(3-(2'-(cyclopropylamino)-7'-oxo-5'H-spiro[cyclopropane-1,8'-pyrido[4,3-d]pyrimidine]-6'(7'H)-yl)-4-methylphenyl)-3-(4-methyl-1H-imidazol-1-yl)-5-(trifluoromethyl)benzamide] | ≤ 40 | ≤ 40 | > 40 | > 40 | > 40 | > 40 | > 40 | ≤ 40 | ≤ 40 | > 40 | > 40 | ≤ 40 | > 40 | > 40 | > 40 | > 40 | > 40 | > 40 | > 40 | > 40 | remaining activity at 1 µM (C-KIT; C-KIT): ≤ 40%; remaining activity at 1 µM (CDK5/P35; CDK5/P35, 1 µM): > 40%; remaining activity at 1 µM (MYO3B; MYO3B): > 40%; remaining activity at 1 µM (PKACG): ≤ 40%; remaining activity at 1 µM (PKCZETA): > 40%; remaining activity at 1 µM (PKG1B; PKG1B): > 40%; remaining activity at 1 µM (RSK1): ≤ 40%; remaining activity at 1 µM (SGK3/SGKL): > 40%; remaining activity at 1 µM (STK22D/TSSK1): > 40%; remaining activity at 1 µM (STK38/NDR1): > 40%; remaining activity at 1 µM (STK39/STLK3): > 40%; remaining activity at 1 µM (TAOK1): ≤ 40%; remaining activity at 1 µM (WEE1): > 40%
Cc1ccc(Nc2ncc3c(n2)C2(CC2)C(=O)N(c2cc(NC(=O)c4cccc(C(F)(F)F)c4)ccc2C)C3)cn1 [Compound 51, N-(4-methyl-3-(2'-((6-methylpyridin-3-yl)amino)-7'-oxo-5'H-spiro[cyclopropane-1,8'-pyrido[4,3-d]pyrimidine]-6'(7'H)-yl)phenyl)-3-(trifluoromethyl)benzamide] | ≤ 40 | ≤ 40 | > 40 | > 40 | > 40 | > 40 | > 40 | ≤ 40 | ≤ 40 | > 40 | > 40 | ≤ 40 | ≤ 40 | > 40 | > 40 | > 40 | > 40 | > 40 | > 40 | > 40 | remaining activity at 1 µM (C-KIT; c-Kit): ≤ 40%; remaining activity at 1 µM (CDK5/P35; CDK5/p35, 1 µM): > 40%; remaining activity at 1 µM (MYO3B; MYO3b): > 40%; remaining activity at 1 µM (PKACG): ≤ 40%; remaining activity at 1 µM (PKCZETA): > 40%; remaining activity at 1 µM (PKG1B; PKG1b): > 40%; remaining activity at 1 µM (RSK1): ≤ 40%; remaining activity at 1 µM (SGK3/SGKL): > 40%; remaining activity at 1 µM (STK22D/TSSK1): > 40%; remaining activity at 1 µM (STK38/NDR1): > 40%; remaining activity at 1 µM (STK39/STLK3): > 40%; remaining activity at 1 µM (TAOK1): ≤ 40%; remaining activity at 1 µM (WEE1): > 40%
